Legend:
[1] = Oral pharmacokinetic / bioavailability study in rabbits; format: in vivo, New Zealand white rabbits; settings: rabbit, equivalent to 200 mg pazopanib
Experimental: A bioavailability study was carried out to assess the drug absorption and pharmacokinetic parameters of different prepared formulations. A suitable animal was selected, and in vivo studies were performed in accordance with the ethical guidelines for animal care and use committee.
New Zealand white rabbits (Species and strain: […]) (5–6 months older, 2.0 ± 0.2 kg, 34–50 cm without tail) were utilized in this study. Animals were maintained at standard environmental conditions of temperature 24 ± 2 °C, humidity (55 ± 5%), under 12:12 h light (08:00–20:00 h)/dark cycle. Animals had free access to rodent chow and tap water ad libitum. Approval for animal studies was gained by the Institutional Animal Ethics Committee (Protocol no. IAEC; 1888/PO/Re/S/16/ CPCSEA/2022/01), constituted for the purpose of control and supervision of experimental animals and agreed with the globally acknowledged Principles for Laboratory Animal Use and Care as indicated by the National Institutes of Health Guide (NIH Publication No. 85–23, revised 1985). Animals were naive to drug treatments and experimentation, at the beginning of all studies. All tests were conducted at BM College of Pharmaceutical Education and Research (BMCPER), Indore, M.P. between 09:00 and 18:00 h.
Animals (n = 3) were settled into three different groups. First group (control) received Pazopanib drug (control), second group received the marketed pazopanib hydrochloride immediate release tablet (Votrient Tablets, 200 mg), while third group received drug formulations (equivalent to 200 mg of Pazopanib) prepared using HME technique, respectively. Dosage forms were administered orally via gastric intubation. Animals were fasted for 12 h with free access to water prior to drug administration. Rabbits were held in rabbit restrainers during blood sampling. Blood samples were collected in heparinized tubes from ear veins at predetermined time points (0, 0.5, 1, 2, 3, 4, 6, 8, 12, and 24 h) after oral administration. Plasma samples were obtained following centrifugation of blood at 3200× g for 5 min at 2–8 °C and kept frozen at −70 °C until analysis.
Pazopanib plasma concentration was plotted against time to obtain the concentration–time profiles, which were used to determine the peak blood concentration (Cmax) and time to achieve the peak concentration (Tmax). Non-compartmental pharmacokinetic analysis was conducted to calculate the area under the curve from 0 to 24 h [(AUC)0-24). The values of Cmax and Tmax for the test preparation were obtained by actual observations. All data were presented as mean ± standard deviation. In order to determine the area under the curve from 0 to 24 h, a non-compartmental PK study was performed using Win-Nonlin PK/PD software (version 8.1). Comparative blood plasma concentration (µg/mL) at different time points for Pazopanib drug and its formulation are depicted in below Figure 24.

[2] = cited from earlier work
[3] = oral via gastric intubation, fasted, plasma

Cc1ccc(Nc2nccc(N(C)c3ccc4c(C)n(C)nc4c3)n2)cc1S(N)(=O)=O.Cl [PZB-Drug/API, Pazopanib Hydrochloride]
Cmax [1, 3]: 44700 ng/mL | Tmax [1, 3]: 2 h | T lag ([1]; oral): 0 h | AUC Last ([1]; oral, 0 to 24 h, non-compartmental): 308.675 µg·h/mL | C Last ([1]; oral, last sampling 24 h): 7.6 µg/mL | BCS class [2]: BCS class II | log P [2]: 3.55 | pKa [2]: 2.5
